Data set [1] relates to HL-60. In words: Anticancer activity was evaluated for the compound against parent promyelocytic leukemia cell line (HL-60-GHPRT+/dCK+). It is filed as functional. The settings on record: Homo sapiens, read-out: ED50 (the source's name).
Data set [2] is filed under the species Mus musculus. Description: (§1) Compound was tested in mice for the cytotoxicity against the herpes simplex virus type 1 (strain F) in plaque; Inactive. The data set is classed as functional, organism-based.
The test system of data set [3] is Human alphaherpesvirus 1. The description is as §1. It is filed as organism-based. To be noted: human alphaherpesvirus 1, in vivo.
Data set [4] addresses Thymidylate synthase (Mus musculus) (UniProt P07607). In words: Compound was evaluated for its ability to inhibit tritium release using 1 uM [5-3H]-dCyd for the cellular enzyme assay.
For data set [5] the target is unchanged. Description: compound was evaluated for its ability to inhibit tritium release using 1 uM [5-3H]-dUrd for the cellular enzyme assay; Inactive.
The test system of data set [6] is HL-60. In words: Anticancer activity was evaluated for the compound against ara-C resistant promyelocytic leukemia cell line that is Cyd-kinase deficient (HL-60-HGPRT-/dCK-). It is filed as functional. The settings on record: Homo sapiens, read-out: ID50 (the source's name).
The target of data set [7] is Thymidylate synthase (Mus musculus) (UniProt P07607). In words: Inhibition of thymidylate synthase in L1210 cells. It is filed as cell-based.
Sequence of Thymidylate synthase (Mus musculus) (P07607 whole entry, looked up): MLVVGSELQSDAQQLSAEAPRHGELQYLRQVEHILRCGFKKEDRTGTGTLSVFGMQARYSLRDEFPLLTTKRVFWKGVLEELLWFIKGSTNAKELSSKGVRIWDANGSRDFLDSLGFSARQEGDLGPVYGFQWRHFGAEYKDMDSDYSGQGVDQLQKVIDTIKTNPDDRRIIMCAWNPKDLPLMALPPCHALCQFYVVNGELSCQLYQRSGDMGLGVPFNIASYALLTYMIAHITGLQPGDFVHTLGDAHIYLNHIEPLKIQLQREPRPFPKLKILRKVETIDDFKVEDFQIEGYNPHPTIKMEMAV
The nature of data set [8]: compound was evaluated for its ability to inhibit tritium release using 1 uM [5-3H]-dUrd for the cellular enzyme assay. The data set is classed as functional.
The subject of data set [9] is HL-60. In words: Anticancer activity of the compound against ara-C resistant promyelocytic leukemia cell line that is Cyd-kinase deficient (HL-60-HGPRT-/dCK-) is determined. It is filed as functional. To be noted: Homo sapiens, read-out: ED50 (the source's name).

Data on 4 molecules can be found in ChEMBL document CHEMBL1123319, “Synthesis and biological activity of 5-phenylselenenyl-substituted pyrimidine nucleosides” (J Med Chem, 1986).

pEC50, pIC50: −log10 of the molar value. The source made the active and inactive calls. No cut-off for these calls is given here.

On to `O=c1[nH]c(=O)n([C@@H]2O[C@H](CO)[C@@H](O)[C@@H]2O)cc1[Se]c1ccccc1`, for which the pEC50 in data set [1] was 4.06. The LD50 entry in data set [2] is “inactive”.

With `O=c1[nH]c(=O)n([C@H]2C[C@H](O)[C@@H](CO)O2)cc1[Se]c1ccccc1`, the LD50 entry in data set [3] is “Not Active”. This molecule yielded an ID50 in [4] of 70 µM. The ID50 entry in data set [5] was “inactive”.

Consider `Nc1nc(=O)n([C@@H]2O[C@H](CO)[C@@H](O)[C@@H]2O)cc1[Se]c1ccccc1`, for which the pIC50 in data set [6] was 3.43. In data set [7], this molecule returned an ED50 of 25 µM. Besides, the ID50 in data set [8] is 60 µM.

As for `Nc1ccn([C@@H]2O[C@H](CO)[C@@H](O)[C@@H]2O)c(=O)n1` [CYTARABINE], the pEC50 in data set [1] is 7.33; in data set [9], 4.52. For the same molecule, the ED50 in data set [7] is 0.03 µM.
